In the kinase profiling compilation of Christmann-Franck et al. (2016):

How the values were obtained:
Test in all cases: radiometric filter-binding kinase assay
MAP3K9 (human) = MAP3K9 (human) (UniProt P80192)
EPHB1 (human) = EPHB1 (human) (UniProt P54762)
MAPK13 (human) = MAPK13 (human) (UniProt O15264)
LCK (mouse) = settings: accession and sequence are those of the human protein
SRPK1 (human) = SRPK1 (human) (UniProt Q96SB4)
PIM3 (human) = PIM3 (human) (UniProt Q86V86)
[1] = test system: AKT2 (human), P31751 [S474D]
[2] = test system: PAK2 (human), Q13177 [T402E]
MAPK10 (human) = MAPK10 (human) (UniProt P53779)
PHKG1 (human) = PHKG1 (human) (UniProt Q16816)
MYLK (human) = MYLK (human) (UniProt Q15746)
MYLK (human), sequence (Q15746 whole entry, looked up): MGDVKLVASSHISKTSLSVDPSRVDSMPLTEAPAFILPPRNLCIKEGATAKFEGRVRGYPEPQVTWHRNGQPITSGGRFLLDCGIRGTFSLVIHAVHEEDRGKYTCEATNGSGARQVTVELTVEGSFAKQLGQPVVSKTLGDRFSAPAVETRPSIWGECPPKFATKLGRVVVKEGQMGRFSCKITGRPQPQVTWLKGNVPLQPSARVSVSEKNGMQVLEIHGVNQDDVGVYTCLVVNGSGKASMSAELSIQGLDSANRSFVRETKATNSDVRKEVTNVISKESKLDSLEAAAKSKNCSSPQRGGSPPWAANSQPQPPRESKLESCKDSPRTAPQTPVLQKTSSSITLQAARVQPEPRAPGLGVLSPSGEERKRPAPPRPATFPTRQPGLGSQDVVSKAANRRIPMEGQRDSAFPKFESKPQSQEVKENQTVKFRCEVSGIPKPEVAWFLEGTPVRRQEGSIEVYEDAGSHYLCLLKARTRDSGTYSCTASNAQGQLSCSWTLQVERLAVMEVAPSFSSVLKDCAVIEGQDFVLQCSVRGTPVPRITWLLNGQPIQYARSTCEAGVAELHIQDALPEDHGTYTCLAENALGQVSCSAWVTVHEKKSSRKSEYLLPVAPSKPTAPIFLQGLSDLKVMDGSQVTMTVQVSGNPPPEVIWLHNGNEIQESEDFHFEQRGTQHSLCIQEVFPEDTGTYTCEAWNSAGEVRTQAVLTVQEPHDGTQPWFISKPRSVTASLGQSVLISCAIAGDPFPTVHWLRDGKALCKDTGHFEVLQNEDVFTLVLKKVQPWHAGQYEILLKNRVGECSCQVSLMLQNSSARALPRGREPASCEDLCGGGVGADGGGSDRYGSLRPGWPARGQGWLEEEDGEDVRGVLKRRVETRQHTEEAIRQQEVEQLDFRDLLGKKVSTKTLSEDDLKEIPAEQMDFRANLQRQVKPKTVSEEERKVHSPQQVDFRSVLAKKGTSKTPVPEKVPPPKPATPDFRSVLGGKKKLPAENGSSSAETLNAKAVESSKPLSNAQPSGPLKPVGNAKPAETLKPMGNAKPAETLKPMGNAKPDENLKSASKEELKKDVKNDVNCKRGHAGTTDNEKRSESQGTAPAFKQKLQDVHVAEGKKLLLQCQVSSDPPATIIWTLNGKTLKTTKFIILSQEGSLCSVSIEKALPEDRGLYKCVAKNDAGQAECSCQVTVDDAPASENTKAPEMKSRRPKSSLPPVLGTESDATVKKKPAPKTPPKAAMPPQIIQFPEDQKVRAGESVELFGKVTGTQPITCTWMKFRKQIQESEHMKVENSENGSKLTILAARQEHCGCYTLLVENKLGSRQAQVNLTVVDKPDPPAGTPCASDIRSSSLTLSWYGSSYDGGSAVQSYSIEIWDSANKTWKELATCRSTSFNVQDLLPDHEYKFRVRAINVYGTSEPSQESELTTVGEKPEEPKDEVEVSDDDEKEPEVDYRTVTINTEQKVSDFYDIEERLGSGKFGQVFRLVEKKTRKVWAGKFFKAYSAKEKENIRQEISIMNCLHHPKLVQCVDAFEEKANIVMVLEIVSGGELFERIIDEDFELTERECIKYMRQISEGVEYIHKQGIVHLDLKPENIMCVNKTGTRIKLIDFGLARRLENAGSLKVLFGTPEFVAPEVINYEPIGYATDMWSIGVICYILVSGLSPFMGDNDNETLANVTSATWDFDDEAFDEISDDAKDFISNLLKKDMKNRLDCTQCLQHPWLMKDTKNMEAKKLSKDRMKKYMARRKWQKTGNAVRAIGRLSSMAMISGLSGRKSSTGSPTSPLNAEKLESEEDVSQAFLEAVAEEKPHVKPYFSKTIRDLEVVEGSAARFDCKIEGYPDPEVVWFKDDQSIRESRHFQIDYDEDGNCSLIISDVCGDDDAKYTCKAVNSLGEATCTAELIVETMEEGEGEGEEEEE

EPHA2 (human) = EPHA2 (human) (UniProt P29317)
PKN2 (human) = PKN2 (human) (UniProt Q16513)
PKN2 (human), sequence (Q16513 whole entry, looked up): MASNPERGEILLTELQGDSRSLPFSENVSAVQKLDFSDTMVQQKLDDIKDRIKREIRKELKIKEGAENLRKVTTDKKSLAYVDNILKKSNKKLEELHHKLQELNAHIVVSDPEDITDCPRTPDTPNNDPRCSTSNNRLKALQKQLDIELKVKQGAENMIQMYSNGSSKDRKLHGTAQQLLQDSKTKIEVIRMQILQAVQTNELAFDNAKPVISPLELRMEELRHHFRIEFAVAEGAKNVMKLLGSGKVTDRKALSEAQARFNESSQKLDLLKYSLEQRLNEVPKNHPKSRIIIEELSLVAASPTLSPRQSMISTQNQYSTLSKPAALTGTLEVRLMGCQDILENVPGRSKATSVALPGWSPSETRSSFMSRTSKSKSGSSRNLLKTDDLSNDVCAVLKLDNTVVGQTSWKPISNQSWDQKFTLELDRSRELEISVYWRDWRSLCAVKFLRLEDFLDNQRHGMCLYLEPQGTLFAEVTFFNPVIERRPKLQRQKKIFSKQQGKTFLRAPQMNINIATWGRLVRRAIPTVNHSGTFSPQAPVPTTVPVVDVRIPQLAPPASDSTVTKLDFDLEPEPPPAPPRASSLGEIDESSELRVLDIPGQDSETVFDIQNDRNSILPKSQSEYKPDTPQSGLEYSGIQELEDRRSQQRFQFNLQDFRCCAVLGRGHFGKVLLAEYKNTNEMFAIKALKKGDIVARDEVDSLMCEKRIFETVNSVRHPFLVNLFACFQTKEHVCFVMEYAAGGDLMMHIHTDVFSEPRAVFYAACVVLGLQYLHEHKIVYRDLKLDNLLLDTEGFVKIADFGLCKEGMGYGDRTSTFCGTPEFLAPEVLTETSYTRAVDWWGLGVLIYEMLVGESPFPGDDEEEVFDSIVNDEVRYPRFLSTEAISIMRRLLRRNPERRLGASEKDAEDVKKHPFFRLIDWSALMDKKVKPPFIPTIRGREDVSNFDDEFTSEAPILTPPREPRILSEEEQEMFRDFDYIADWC

CSNK2A1 (human) = CSNK2A1 (human) (UniProt P68400)
[3] = target: STK11 CAB39 STRADA (human) (UniProt Q9Y376+Q7RTN6+Q15831)
TTK (human) = TTK (human) (UniProt P33981)
TTK (human), sequence (P33981 whole entry, looked up): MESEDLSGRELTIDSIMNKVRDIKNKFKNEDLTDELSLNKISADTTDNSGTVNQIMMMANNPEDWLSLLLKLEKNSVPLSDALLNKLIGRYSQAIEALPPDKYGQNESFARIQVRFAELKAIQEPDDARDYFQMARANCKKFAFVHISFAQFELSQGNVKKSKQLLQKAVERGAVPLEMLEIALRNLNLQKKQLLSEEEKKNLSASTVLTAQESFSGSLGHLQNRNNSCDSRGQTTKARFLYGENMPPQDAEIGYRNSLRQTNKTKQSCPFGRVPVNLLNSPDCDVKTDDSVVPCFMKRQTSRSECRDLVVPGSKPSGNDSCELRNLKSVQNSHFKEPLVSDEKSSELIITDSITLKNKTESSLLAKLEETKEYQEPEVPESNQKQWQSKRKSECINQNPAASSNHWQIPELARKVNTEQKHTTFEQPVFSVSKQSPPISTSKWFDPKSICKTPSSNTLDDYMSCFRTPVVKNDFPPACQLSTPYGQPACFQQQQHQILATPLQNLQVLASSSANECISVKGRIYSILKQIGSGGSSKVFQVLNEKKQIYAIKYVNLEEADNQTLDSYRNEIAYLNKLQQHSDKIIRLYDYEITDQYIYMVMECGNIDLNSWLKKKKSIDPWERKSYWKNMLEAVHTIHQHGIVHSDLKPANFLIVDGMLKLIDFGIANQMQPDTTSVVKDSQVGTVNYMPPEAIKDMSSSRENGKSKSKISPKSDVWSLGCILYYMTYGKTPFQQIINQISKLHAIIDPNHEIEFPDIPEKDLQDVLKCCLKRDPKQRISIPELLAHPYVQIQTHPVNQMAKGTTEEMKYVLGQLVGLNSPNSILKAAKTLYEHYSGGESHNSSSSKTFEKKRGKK

MAP2K1 (human) = MAP2K1 (human) (UniProt Q02750)
FGFR1 (human) = FGFR1 (human) (UniProt P11362)
DYRK3 (human) = DYRK3 (human) (UniProt O43781)
MARK1 (human) = MARK1 (human) (UniProt Q9P0L2)
MARK2 (human) = MARK2 (human) (UniProt Q7KZI7)
NEK2 (human) = NEK2 (human) (UniProt P51955)
[4] = test system: AKT1 (human), P31749 [S473D]
MKNK1 (human) = MKNK1 (human) (UniProt Q9BUB5)
MAP2K6 (human) = MAP2K6 (human) (UniProt P52564)
INSR (human) = INSR (human) (UniProt P06213)
TBK1 (human) = TBK1 (human) (UniProt Q9UHD2)
[5] = test system: RPS6KB1 (human), P23443 [T412E]
RPS6KB1 (human), P23443 [T412E], sequence (P23443 whole entry T412E, looked up): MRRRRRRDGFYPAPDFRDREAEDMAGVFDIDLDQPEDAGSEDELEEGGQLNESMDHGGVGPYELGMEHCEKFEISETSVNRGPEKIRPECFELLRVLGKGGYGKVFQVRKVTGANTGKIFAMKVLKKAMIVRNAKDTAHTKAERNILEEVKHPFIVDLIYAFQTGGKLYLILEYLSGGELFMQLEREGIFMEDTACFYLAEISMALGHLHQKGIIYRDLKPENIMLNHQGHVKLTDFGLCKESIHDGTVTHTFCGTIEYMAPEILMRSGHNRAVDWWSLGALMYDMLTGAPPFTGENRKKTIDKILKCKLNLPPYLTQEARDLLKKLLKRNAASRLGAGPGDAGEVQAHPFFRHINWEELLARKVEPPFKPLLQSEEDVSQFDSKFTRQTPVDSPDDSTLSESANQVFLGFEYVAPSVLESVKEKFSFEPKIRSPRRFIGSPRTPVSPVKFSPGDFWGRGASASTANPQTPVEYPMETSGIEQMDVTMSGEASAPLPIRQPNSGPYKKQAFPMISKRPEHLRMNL

SYK (human) = SYK (human) (UniProt P43405)
INSRR (human) = INSRR (human) (UniProt P14616)
PIM2 (human) = PIM2 (human) (UniProt Q9P1W9)
ROCK2 (rat) = settings: accession and sequence are those of the human protein
NEK6 (human) = NEK6 (human) (UniProt Q9HC98)
GSK3B (human) = GSK3B (human) (UniProt P49841)
GSK3B (human), sequence (P49841 whole entry, looked up): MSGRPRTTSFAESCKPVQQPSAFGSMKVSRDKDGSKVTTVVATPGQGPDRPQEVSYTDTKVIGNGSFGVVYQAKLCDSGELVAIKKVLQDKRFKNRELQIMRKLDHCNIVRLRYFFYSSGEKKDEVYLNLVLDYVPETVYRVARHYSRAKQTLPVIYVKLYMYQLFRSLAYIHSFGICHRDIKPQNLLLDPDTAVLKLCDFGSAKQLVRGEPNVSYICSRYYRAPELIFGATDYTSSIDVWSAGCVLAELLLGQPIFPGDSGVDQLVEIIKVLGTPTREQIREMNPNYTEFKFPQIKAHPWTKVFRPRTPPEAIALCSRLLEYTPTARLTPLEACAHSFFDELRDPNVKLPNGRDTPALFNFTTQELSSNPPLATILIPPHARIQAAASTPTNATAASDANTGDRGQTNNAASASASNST

MAPK11 (human) = MAPK11 (human) (UniProt Q15759)
IRAK4 (human) = IRAK4 (human) (UniProt Q9NWZ3)

For `CCn1c(-c2nonc2N)nc2cncc(CNC3CCNCC3)c21`, which residual activity (MAP3K9 (human); compound 0.1 µM) is on record?
The residual activity was 105%.

What about the residual activity (MAP3K9 (human); compound 1.0 µM) of the same compound?
Its residual activity is 104%.

And the residual activity (MAP3K9 (human); compound 10.0 µM)?
The residual activity was 99%.

And the residual activity (EPHB1 (human); compound 0.1 µM)?
The residual activity was 92%.

What about the residual activity (EPHB1 (human); compound 1.0 µM) of the same compound?
Its residual activity is 99%.

What about the residual activity (EPHB1 (human); compound 10.0 µM) of the same compound?
Its residual activity is 82%.

And the residual activity (MAPK13 (human); compound 0.1 µM)?
Its residual activity is 100%.

And the residual activity (MAPK13 (human); compound 1.0 µM)?
Its residual activity is 99%.

And the residual activity (MAPK13 (human); compound 10.0 µM)?
Its residual activity is 88%.

What about the residual activity (LCK (mouse); compound 0.1 µM) of the same compound?
The residual activity was 102%.

And the residual activity (LCK (mouse); compound 1.0 µM)?
The residual activity was 99%.

What about the residual activity (LCK (mouse); compound 10.0 µM) of the same compound?
Its residual activity is 94%.

And the residual activity (SRPK1 (human); compound 0.1 µM)?
Its residual activity is 94%.

What about the residual activity (SRPK1 (human); compound 1.0 µM) of the same compound?
Its residual activity is 99%.

What about the residual activity (SRPK1 (human); compound 10.0 µM) of the same compound?
Its residual activity is 86%.

What about the residual activity (PIM3 (human); compound 0.1 µM) of the same compound?
Its residual activity is 76%.

What about the residual activity (PIM3 (human); compound 1.0 µM) of the same compound?
The residual activity was 36%.

And the residual activity (PIM3 (human); compound 10.0 µM)?
Its residual activity is 13%.

And the residual activity ([1]; compound 0.1 µM)?
Its residual activity is 101%.

What about the residual activity ([1]; compound 1.0 µM) of the same compound?
Its residual activity is 59%.

What about the residual activity ([1]; compound 10.0 µM) of the same compound?
Its residual activity is 38%.

What about the residual activity ([2]; compound 0.1 µM) of the same compound?
The residual activity was 99%.

What about the residual activity ([2]; compound 1.0 µM) of the same compound?
The residual activity was 93%.

What about the residual activity ([2]; compound 10.0 µM) of the same compound?
The residual activity was 90%.

And the residual activity (MAPK10 (human); compound 0.1 µM)?
The residual activity was 97%.

And the residual activity (MAPK10 (human); compound 10.0 µM)?
Its residual activity is 95%.

What about the residual activity (PHKG1 (human); compound 0.1 µM) of the same compound?
The residual activity was 101%.

What about the residual activity (PHKG1 (human); compound 1.0 µM) of the same compound?
The residual activity was 101%.

What about the residual activity (PHKG1 (human); compound 10.0 µM) of the same compound?
The residual activity was 75%.

And the residual activity (MYLK (human); compound 0.1 µM)?
The residual activity was 104%.

What about the residual activity (MYLK (human); compound 1.0 µM) of the same compound?
Its residual activity is 110%.

And the residual activity (MYLK (human); compound 10.0 µM)?
Its residual activity is 70%.

And the residual activity (EPHA2 (human); compound 0.1 µM)?
Its residual activity is 119%.

And the residual activity (EPHA2 (human); compound 1.0 µM)?
Its residual activity is 114%.

What about the residual activity (EPHA2 (human); compound 10.0 µM) of the same compound?
The residual activity was 103%.

And the residual activity (PKN2 (human); compound 0.1 µM)?
Its residual activity is 31%.

What about the residual activity (PKN2 (human); compound 1.0 µM) of the same compound?
The residual activity was 12%.

What about the residual activity (PKN2 (human); compound 10.0 µM) of the same compound?
The residual activity was 7%.

And the residual activity (CSNK2A1 (human); compound 0.1 µM)?
Its residual activity is 71%.

What about the residual activity (CSNK2A1 (human); compound 1.0 µM) of the same compound?
Its residual activity is 74%.

What about the residual activity (CSNK2A1 (human); compound 10.0 µM) of the same compound?
The residual activity was 86%.

And the residual activity ([3]; compound 0.1 µM)?
The residual activity was 108%.

And the residual activity ([3]; compound 10.0 µM)?
Its residual activity is 57%.

What about the residual activity (TTK (human); compound 0.1 µM) of the same compound?
The residual activity was 83%.

And the residual activity (TTK (human); compound 1.0 µM)?
The residual activity was 84%.

And the residual activity (TTK (human); compound 10.0 µM)?
The residual activity was 65%.

And the residual activity (MAP2K1 (human); compound 0.1 µM)?
The residual activity was 85%.

What about the residual activity (MAP2K1 (human); compound 1.0 µM) of the same compound?
Its residual activity is 103%.

What about the residual activity (MAP2K1 (human); compound 10.0 µM) of the same compound?
The residual activity was 78%.

What about the residual activity (FGFR1 (human); compound 0.1 µM) of the same compound?
The residual activity was 101%.

What about the residual activity (FGFR1 (human); compound 1.0 µM) of the same compound?
Its residual activity is 115%.

What about the residual activity (FGFR1 (human); compound 10.0 µM) of the same compound?
Its residual activity is 121%.

What about the residual activity (DYRK3 (human); compound 0.1 µM) of the same compound?
The residual activity was 107%.

And the residual activity (DYRK3 (human); compound 1.0 µM)?
The residual activity was 93%.

What about the residual activity (DYRK3 (human); compound 10.0 µM) of the same compound?
Its residual activity is 72%.

What about the residual activity (MARK1 (human); compound 0.1 µM) of the same compound?
The residual activity was 85%.

And the residual activity (MARK1 (human); compound 1.0 µM)?
The residual activity was 95%.

What about the residual activity (MARK1 (human); compound 10.0 µM) of the same compound?
Its residual activity is 71%.

And the residual activity (MARK2 (human); compound 0.1 µM)?
Its residual activity is 99%.

What about the residual activity (MARK2 (human); compound 1.0 µM) of the same compound?
The residual activity was 92%.

And the residual activity (MARK2 (human); compound 10.0 µM)?
The residual activity was 63%.

What about the residual activity (NEK2 (human); compound 0.1 µM) of the same compound?
The residual activity was 98%.

What about the residual activity (NEK2 (human); compound 1.0 µM) of the same compound?
The residual activity was 93%.

And the residual activity (NEK2 (human); compound 10.0 µM)?
The residual activity was 106%.

And the residual activity ([4]; compound 0.1 µM)?
Its residual activity is 48%.

And the residual activity ([4]; compound 1.0 µM)?
The residual activity was 16%.

And the residual activity ([4]; compound 10.0 µM)?
Its residual activity is 4%.

What about the residual activity (MKNK1 (human); compound 0.1 µM) of the same compound?
Its residual activity is 91%.

And the residual activity (MKNK1 (human); compound 1.0 µM)?
Its residual activity is 100%.

And the residual activity (MKNK1 (human); compound 10.0 µM)?
Its residual activity is 90%.

And the residual activity (MAP2K6 (human); compound 0.1 µM)?
Its residual activity is 89%.

What about the residual activity (MAP2K6 (human); compound 1.0 µM) of the same compound?
The residual activity was 90%.

What about the residual activity (MAP2K6 (human); compound 10.0 µM) of the same compound?
Its residual activity is 96%.

What about the residual activity (INSR (human); compound 0.1 µM) of the same compound?
Its residual activity is 99%.

What about the residual activity (INSR (human); compound 1.0 µM) of the same compound?
Its residual activity is 99%.

And the residual activity (INSR (human); compound 10.0 µM)?
The residual activity was 99%.

And the residual activity (TBK1 (human); compound 0.1 µM)?
The residual activity was 88%.

And the residual activity (TBK1 (human); compound 1.0 µM)?
The residual activity was 93%.

And the residual activity (TBK1 (human); compound 10.0 µM)?
The residual activity was 78%.

What about the residual activity ([5]; compound 0.1 µM) of the same compound?
Its residual activity is 16%.

What about the residual activity ([5]; compound 1.0 µM) of the same compound?
Its residual activity is 5%.

And the residual activity ([5]; compound 10.0 µM)?
The residual activity was 4%.

And the residual activity (SYK (human); compound 0.1 µM)?
Its residual activity is 106%.

What about the residual activity (SYK (human); compound 1.0 µM) of the same compound?
Its residual activity is 101%.

And the residual activity (SYK (human); compound 10.0 µM)?
Its residual activity is 79%.

What about the residual activity (INSRR (human); compound 0.1 µM) of the same compound?
The residual activity was 71%.

And the residual activity (INSRR (human); compound 1.0 µM)?
Its residual activity is 49%.

What about the residual activity (INSRR (human); compound 10.0 µM) of the same compound?
Its residual activity is 21%.

And the residual activity (PIM2 (human); compound 1.0 µM)?
The residual activity was 110%.

What about the residual activity (PIM2 (human); compound 10.0 µM) of the same compound?
The residual activity was 69%.

What about the residual activity (ROCK2 (rat); compound 0.1 µM) of the same compound?
The residual activity was 31%.

And the residual activity (ROCK2 (rat); compound 1.0 µM)?
The residual activity was 23%.

What about the residual activity (ROCK2 (rat); compound 10.0 µM) of the same compound?
The residual activity was 17%.

And the residual activity (NEK6 (human); compound 0.1 µM)?
Its residual activity is 103%.

And the residual activity (NEK6 (human); compound 1.0 µM)?
The residual activity was 101%.

And the residual activity (NEK6 (human); compound 10.0 µM)?
Its residual activity is 102%.

And the residual activity (GSK3B (human); compound 0.1 µM)?
Its residual activity is 87%.

And the residual activity (GSK3B (human); compound 1.0 µM)?
The residual activity was 66%.

And the residual activity (GSK3B (human); compound 10.0 µM)?
The residual activity was 25%.

What about the residual activity (MAPK11 (human); compound 0.1 µM) of the same compound?
Its residual activity is 102%.

What about the residual activity (MAPK11 (human); compound 1.0 µM) of the same compound?
Its residual activity is 96%.

What about the residual activity (MAPK11 (human); compound 10.0 µM) of the same compound?
Its residual activity is 89%.

What about the residual activity (IRAK4 (human); compound 0.1 µM) of the same compound?
Its residual activity is 99%.

And the residual activity (IRAK4 (human); compound 1.0 µM)?
The residual activity was 86%.

What about the residual activity (IRAK4 (human); compound 10.0 µM) of the same compound?
The residual activity was 87%.
